Measurements from US20240270821A1, “GIP/GLP1/GCG TRI-RECEPTOR AGONISTS AND USES THEREOF” (priority 2023, published 2024).
Where two headings read alike, the source gives them in different places. Starred links: 1 amine or outer side, 2 acyl side, 3 side chain; linkers in the order of their positions; H or OH if unused. Non-standard residues stand in square brackets, D forms with d. Residues, ends and D or L forms follow the SMILES beside them. Groups on a side chain read outwards from the residue. *: point of attachment. C18 diacid = O=C(O)CCCCCCCCCCCCCCCCC(=O)*; αMePhe(2-F) = C[C@](N)(Cc1ccccc1F)C(=O)O; γGlu = O=C(O)[C@H](CCC(=O)[*:2])N[*:1]; αMe4Pal = C[C@](N)(Cc1ccncc1)C(=O)O; αMeY = C[C@](N)(Cc1ccc(O)cc1)C(=O)O; 4Pal = N[C@@H](Cc1ccncc1)C(=O)O; αMeL = CC(C)C[C@](C)(N)C(=O)O; αMeS = C[C@](N)(CO)C(=O)O; Orn = NCCC[C@H](N)C(=O)O; AEEA = NCCOCCOCC(=O)O; Aib = CC(C)(N)C(=O)O

Key:
hGcgR = hGcgR (Homo sapiens, UniProt P47871); experiment: Functional cAMP activation in the presence of 0.1% casein (no HSA); assay type: cell-based; conditions: read-out: Relative cAMP EC50, hGcgR;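 note: intracellular cAMP rise after 30 min at 37 °C, read by HTRF against a cAMP standard curve, scaled from buffer only (0%) to maximal control ligand response (100%)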
in vivo [1] = experiment: in vivo; design: species or system Sprague Dawley rats; conditions: male, Sprague Dawley, rat, 4 mg/kg
Method: The pharmacokinetics of the exemplary analogs are evaluated following a single subcutaneous (SC) administration of 10 nmol/kg (dissolved in 40 mM Tris pH8) or single 4 mg/kg (mixed with 250 mM sodium decanoate/C10 in 40 mM Tris pH8) intrajejunal (IJ) administration to male Sprague Dawley rats. Blood samples are collected over 96 hours following SC administration and 72 hours following IJ dosing, and resulting individual plasma concentrations are used to calculate pharmacokinetic parameters. Peptide plasma (K3 EDTA) concentrations are determined using a qualified LC/MS method that measured the intact mass of the analog. Each peptide and an analog as an internal standard are extracted from rat plasma using methanol. A High Resolution Instrument was used for LC/MS detection.

hGIPR [2] = biological target: T1, hGIPR (Homo sapiens, UniProt P48546); experiment: Functional cAMP activation in the presence of 0.1% casein (no HSA); assay type: cell-based; conditions: read-out: Relative cAMP EC50, hGIPR;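 note: intracellular cAMP rise after 30 min at 37 °C read by HTRF against a standard curve, scaled between buffer alone (0%) and top control ligand concentration (100%), four-parameter fit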
T1 sequence (P48546 22-466): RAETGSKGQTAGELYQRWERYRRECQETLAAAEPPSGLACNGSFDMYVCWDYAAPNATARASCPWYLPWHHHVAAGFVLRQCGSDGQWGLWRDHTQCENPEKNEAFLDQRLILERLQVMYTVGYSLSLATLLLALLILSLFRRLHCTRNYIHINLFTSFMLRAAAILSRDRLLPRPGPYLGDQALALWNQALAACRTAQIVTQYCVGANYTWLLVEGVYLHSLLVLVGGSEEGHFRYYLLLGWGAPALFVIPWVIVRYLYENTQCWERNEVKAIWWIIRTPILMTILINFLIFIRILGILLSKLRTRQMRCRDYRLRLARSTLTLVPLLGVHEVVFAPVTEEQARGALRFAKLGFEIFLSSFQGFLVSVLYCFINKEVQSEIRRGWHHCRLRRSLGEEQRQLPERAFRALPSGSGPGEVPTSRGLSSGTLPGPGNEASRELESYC

[3] = Body weight in diet-induced obese C57BL/6 mice; assay type: in vivo; conditions: 10 nmol/kg SC QD, percent of starting weight, DIO mice, mean ± SEM n=5
Summary of the method: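 Male C57BL/6 DIO mice (41-50 g, 5 per group, randomized by weight) on calorie-rich diet received subcutaneous doses 30-90 min before dark onset, QD or Q3D for 9-16 days. Body weight measured daily, expressed as percent of starting weight, mean±SEM.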

human GcgR = human GcgR (Homo sapiens, UniProt P47871); experiment: Functional cAMP activity in the presence of 1% HSA; assay type: cell-based; conditions: read-out: cAMP Rel EC50, hGcgR
hGLP-1R [4] = biological target: T2, hGLP-1R (Homo sapiens, UniProt P43220); experiment: Functional cAMP activity in the presence of 1% HSA; assay type: cell-based; conditions: read-out: cAMP Rel EC50, hGLP-1R
hGIPR [5] = biological target: T1, hGIPR; experiment: Functional cAMP activity in the presence of 1% HSA; assay type: cell-based; conditions: read-out: cAMP Rel EC50, hGIPR
hGLP-1R [6] = biological target: T2, hGLP-1R; experiment: Functional cAMP activation in the presence of 0.1% casein (no HSA); assay type: cell-based; conditions: read-out: Relative cAMP EC50, hGLP-1R;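 note: intracellular cAMP rise after 30 min at 37 °C read by HTRF, normalized between buffer only (0%) and maximal control ligand (100%), four-parameter variable-slope fit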
in vivo [7] = experiment: in vivo; design: species or system cynomolgus monkeys; conditions: both sexes, cynomolgus monkey, po; for bioavailability: 10 mg; for AUC(0-inf) / CL/F / Cmax / Tmax / half-life: 300 mg
Method: (§1) A study is designed to evaluate the oral bioavailability of Example polypeptides in cynomolgus monkeys. […] Standards and controls are prepared in cynomolgus monkey plasma, and any dilutions required to bring samples into the quantitative range are also performed in control cynomolgus monkey plasma. To control assay variability, an internal standard (IS) is added to all the standards and samples. The Examples and IS are extracted from 100% monkey plasma (50 μL) by protein precipitation using isopropyl alcohol and methanol (50:50 v/v). The samples are then centrifuged (3000 rpm for 10 minutes) and the supernatant is transferred to a Siricco Protein Precipitation Plate. The samples are loaded on a Sep-Pak tC18 SPE microelution plate that is conditioned with 2% formic acid in acetonitrile and water. The compounds are then washed with 2% formic acid in water and eluted using 2% formic acid in acetonitrile into a plate containing 5× Invitrosol and 1% formic acid in water prior to injecting an aliquot (10 μL) on to Xselect CSH C18, 3.5 μm, 2.1×20 mm for LC/MS analysis.
[…] Blood samples are collected up to 504 hours post-dose. Plasma is harvested from blood samples by centrifugation and stored frozen (−70° C.) until analysis. Plasma concentrations of the molecules are detected using the bioanalytical method described above.

[8] = Pepsin stability assay in simulated gastric fluid; assay type: in vitro ADME; conditions: pH 1.2, % Intact (SD)
Summary of the method: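 Peptides (10 mg/mL stock in 50 mM Tris pH 8.0) incubated with pepsin A in simulated gastric fluid at 37° C. with shaking. Aliquots taken at time intervals were quenched with 100 mM ammonium bicarbonate pH 9, and intact peptide remaining was quantified by LC/MS.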

in vivo [9] = experiment: in vivo; design: species or system cynomolgus monkeys; conditions: both sexes, cynomolgus monkey, iv, 10 nmol/kg
Method: as §1
Blood samples are collected over 504 hours. Plasma is harvested from blood samples by centrifugation and stored frozen (−70° C.) until analysis. Plasma concentrations of the molecules are detected using the bioanalytical method described above.

human GLP1-R = human GLP1-R (Homo sapiens, UniProt P43220); experiment: GLP1-R internalization assay in HEK293 cells; assay type: cell-based; conditions: for EC50: HEK293 cells expressing SNAP-GLP-1R, read-out: GLP1R Internalization EC50; for Internalization % TOP: normalized to maximum concentration of GLP-1 (100%)
[10] = system: Intestinal organoid from Göttingen minipig jejunum tissue, 2D monolayer; experiment: Cell based in vitro permeability (Papp) assay; assay type: in vitro ADME
Summary of the method: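 2D monolayers derived from Göttingen minipig jejunal organoids on transwell inserts. Basal samples collected at 20 min in the presence of C10. Peptide in apical and basal compartments quantified by LC/MS to give Papp.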

[11] = in the presence of 0.1% casein (no HSA), geometric mean

T2 sequence (P43220 24-463): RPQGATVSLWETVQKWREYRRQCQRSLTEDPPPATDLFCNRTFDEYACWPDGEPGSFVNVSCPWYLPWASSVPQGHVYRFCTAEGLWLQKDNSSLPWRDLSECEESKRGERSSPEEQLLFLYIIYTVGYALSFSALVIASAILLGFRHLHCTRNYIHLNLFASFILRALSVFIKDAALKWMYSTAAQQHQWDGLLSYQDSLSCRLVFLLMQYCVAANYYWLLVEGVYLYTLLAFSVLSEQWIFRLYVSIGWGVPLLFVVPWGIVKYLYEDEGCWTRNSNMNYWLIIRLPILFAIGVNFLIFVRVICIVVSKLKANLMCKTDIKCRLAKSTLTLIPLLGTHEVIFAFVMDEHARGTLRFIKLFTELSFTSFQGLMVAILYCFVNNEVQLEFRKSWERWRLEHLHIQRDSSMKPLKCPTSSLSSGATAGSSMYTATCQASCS
human GLP1-R, sequence (P43220 24-463): as above
hGcgR, sequence (P47871 26-477): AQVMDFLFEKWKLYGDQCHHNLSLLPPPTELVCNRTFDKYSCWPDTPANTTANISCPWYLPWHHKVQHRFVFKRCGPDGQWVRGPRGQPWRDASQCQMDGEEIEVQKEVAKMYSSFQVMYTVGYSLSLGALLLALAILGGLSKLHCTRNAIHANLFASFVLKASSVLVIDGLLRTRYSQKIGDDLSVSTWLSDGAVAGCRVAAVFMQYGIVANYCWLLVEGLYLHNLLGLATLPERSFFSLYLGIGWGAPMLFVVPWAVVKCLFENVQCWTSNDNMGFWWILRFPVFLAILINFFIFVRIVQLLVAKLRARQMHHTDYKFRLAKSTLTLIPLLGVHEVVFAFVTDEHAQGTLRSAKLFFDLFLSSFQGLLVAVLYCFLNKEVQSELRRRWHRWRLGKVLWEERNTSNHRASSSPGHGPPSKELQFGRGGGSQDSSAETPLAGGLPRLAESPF
human GcgR, sequence (P47871 26-477): as above

Row | Molecule | EC50 (hGcgR) | CL/F (in vivo [1]) | half-life (in vivo [1]) | EC50 (hGIPR [2]) | EC50 (human GcgR) | EC50 (hGLP-1R [4]) | EC50 (hGIPR [5]) | EC50 (hGLP-1R [6]) | EC50 (hGcgR; [11]) | EC50 (hGIPR [2]; [11]) | EC50 (hGLP-1R [6]; [11]) | bioavailability (in vivo [7]) | AUC(0-inf) (in vivo [7]) | CL/F (in vivo [7]) | Cmax (in vivo [7]) | Tmax (in vivo [7]) | half-life (in vivo [7]) | remaining at 0.25 h, 0.4 mg/mL [8] | AUC(0-inf) (in vivo [9]) | clearance (in vivo [9]) | also measured
1 | H-Y[Aib]QGT[αMePhe(2-F)]TSD[4Pal][αMeS]I[αMeL]LD[Orn]K([AEEA-γGlu-C18 diacid])AQ[Aib][Orn]FI[dE][αMeY]LIEGGPSSGEPPPSEG-NH2 [Example 401] | 1.99 nM | 16.3 mL/min/kg | 6.6 h | 0.0183 nM | 111 nM | 12 nM | 1.71 nM | 0.213 nM |  |  |  |  |  |  |  |  |  |  |  |  | Body weight (%) ([3]; 15 days): 71.54 ± 3.32 %
2 | CC[C@H](C)[C@H](NC(=O)[C@H](Cc1ccccc1)NC(=O)[C@H](C)NC(=O)C(C)(C)NC(=O)[C@H](CCC(N)=O)NC(=O)[C@H](C)NC(=O)[C@H](CCCCNC(=O)COCCOCCNC(=O)CC[C@H](NC(=O)CCCCCCCCCCCCCCCCC(=O)O)C(=O)O)NC(=O)[C@H](CCCCN)NC(=O)[C@H](CC(=O)O)NC(=O)[C@H](CC(C)C)NC(=O)[C@H](CC(C)C)NC(=O)[C@@H](NC(=O)[C@H](CO)NC(=O)[C@H](Cc1ccc(O)cc1)NC(=O)[C@H](CC(=O)O)NC(=O)[C@H](CO)NC(=O)[C@@H](NC(=O)[C@](C)(Cc1ccccc1F)NC(=O)[C@@H](NC(=O)CNC(=O)[C@H](CCC(N)=O)NC(=O)C(C)(C)NC(=O)[C@@H](N)Cc1ccc(O)cc1)[C@@H](C)O)[C@@H](C)O)[C@@H](C)CC)C(=O)N[C@@H](CCC(=O)O)C(=O)N[C@@H](Cc1ccc(O)cc1)C(=O)N[C@@H](CC(C)C)C(=O)N[C@@H](CCC(=O)O)C(=O)N[C@@H](CCC(=O)O)C(=O)NCC(=O)NCC(=O)N1CCC[C@H]1C(=O)N[C@@H](CO)C(=O)N[C@@H](CO)C(=O)NCC(=O)N[C@@H](C)C(=O)N1CCC[C@H]1C(=O)N1CCC[C@H]1C(=O)N1CCC[C@H]1C(=O)N[C@@H](CO)C(N)=O [Example 387] (H-Y[Aib]QGT[αMePhe(2-F)]TSDYSILLDKK([AEEA-γGlu-C18 diacid])AQ[Aib]AFIEYLEEGGPSSGAPPPS-NH2) |  | 14 mL/min/kg | 9.2 h |  | 184 nM | 26.5 nM | 5.64 nM |  | 2.14 nM | 0.0276 nM | 0.255 nM |  |  |  |  |  |  |  |  |  | 
3 | CC[C@H](C)[C@H](NC(=O)[C@H](Cc1ccccc1)NC(=O)[C@H](C)NC(=O)C(C)(C)NC(=O)[C@H](CCC(N)=O)NC(=O)[C@H](C)NC(=O)[C@H](CCCCNC(=O)COCCOCCNC(=O)CC[C@H](NC(=O)CCCCCCCCCCCCCCCCC(=O)O)C(=O)O)NC(=O)[C@H](CCCN)NC(=O)[C@H](CC(=O)O)NC(=O)[C@H](CC(C)C)NC(=O)[C@](C)(CC(C)C)NC(=O)[C@@H](NC(=O)[C@](C)(CO)NC(=O)[C@H](Cc1ccc(O)cc1)NC(=O)[C@H](CC(=O)O)NC(=O)[C@H](CO)NC(=O)[C@@H](NC(=O)[C@](C)(Cc1ccccc1F)NC(=O)[C@@H](NC(=O)CNC(=O)[C@H](CCC(N)=O)NC(=O)C(C)(C)NC(=O)[C@@H](N)Cc1c[nH]cn1)[C@@H](C)O)[C@@H](C)O)[C@@H](C)CC)C(=O)N[C@H](CCC(=O)O)C(=O)N[C@@H](Cc1ccc(O)cc1)C(=O)N[C@@H](CC(C)C)C(=O)N[C@@H](CC(C)C)C(=O)N[C@@H](CCC(=O)O)C(=O)NCC(=O)NCC(=O)N1CCC[C@H]1C(=O)N[C@@H](CO)C(=O)N[C@@H](CO)C(=O)NCC(=O)N[C@@H](CCC(=O)O)C(=O)N1CCC[C@H]1C(=O)N1CCC[C@H]1C(=O)N1CCC[C@H]1C(=O)N[C@@H](CCC(=O)O)C(N)=O [Example 381] (H-H[Aib]QGT[αMePhe(2-F)]TSDY[αMeS]I[αMeL]LD[Orn]K([AEEA-γGlu-C18 diacid])AQ[Aib]AFI[dE]YLLEGGPSSGEPPPE-NH2) |  | 9.83 mL/min/kg | 8.3 h |  | 176 nM | 24.5 nM | 7.01 nM |  | 1.39 nM | 0.0156 nM | 0.157 nM |  |  |  |  |  |  |  |  |  | 
4 | H-Y[Aib]QGT[αMePhe(2-F)]TSD[4Pal][αMeS]I[αMeL]LD[Orn]K([AEEA-γGlu-C18 diacid])AQ[αMe4Pal]EFI[dE][αMeY]LVEGGPSSGAPPPSGS-NH2 [Example 694] | 2.04 nM |  |  | 0.00781 nM | 206 nM | 25 nM | 0.787 nM | 0.253 nM |  |  |  | 2.4% | 14.8 µM·h | 0.873 mL/min/kg | 353 nM | 3.5 h | 50.7 h | 101% | 10.7 ± 2.75 µM·h | 0.0163 mL/min/kg | half-life (in vivo [9]): 50.7 ± 16.8 h; Body weight (%) ([3]; 7 days): 71.92 ± 1.28 %; Body weight (%) ([3]; 14 days): 69.77 ± 2.96 %; EC50 (human GLP1-R): 21.8 nM; Internalization % TOP (human GLP1-R): 97.3%; Relative Papp (Compared to internal standard) [10]: 0.60
5 | H-Y[Aib]QGT[αMePhe(2-F)]TSD[4Pal][αMeS]I[αMeL]LD[Orn]K([AEEA-γGlu-C18 diacid])AQ[αMe4Pal]EFI[dE][αMeY]LIEGGPSSGAPPPSGSE-NH2 [Example 712] | 1.36 nM |  |  | 0.00689 nM | 171 nM | 30.8 nM | 0.584 nM | 0.258 nM |  |  |  | 0.9% | 6.18 µM·h | 1.85 mL/min/kg | 124 nM | 3.75 h | 51.8 h | 92.4% | 12.4 ± 0.862 µM·h | 0.0135 mL/min/kg | remaining at 0.5 h, 0.4 mg/mL [8]: 91.4%; remaining at 1 h, 0.4 mg/mL [8]: 93.5%; half-life (in vivo [9]): 54 ± 6.09 h; Body weight (%) ([3]; 7 days): 69.4 ± 0.60 %; Body weight (%) ([3]; 14 days): 63.61 ± 3.73 %; EC50 (human GLP1-R): 35.3 nM; Internalization % TOP (human GLP1-R): 109%; Relative Papp (Compared to internal standard) [10]: 0.60
